The values below come from patent US4645858A, “Pentanedioic acid derivatives” (G. D. Searle & Co., priority 1985, dated 1987).

pIC50: −log10 of the molar value.

One series has as its target T1, HMG CoA reductase (Rattus norvegicus, UniProt P51639).
T1 construct: The resultant supernatants are discarded and the residues suspended in half the volume of homogenization medium previously employed; from tissue; host or cells: liver of male Charles River CD rats treated with 20,25-diazacholesterol; 100,000×g pellet (microsomes) of the homogenate
T1 sequence (P51639 1-887): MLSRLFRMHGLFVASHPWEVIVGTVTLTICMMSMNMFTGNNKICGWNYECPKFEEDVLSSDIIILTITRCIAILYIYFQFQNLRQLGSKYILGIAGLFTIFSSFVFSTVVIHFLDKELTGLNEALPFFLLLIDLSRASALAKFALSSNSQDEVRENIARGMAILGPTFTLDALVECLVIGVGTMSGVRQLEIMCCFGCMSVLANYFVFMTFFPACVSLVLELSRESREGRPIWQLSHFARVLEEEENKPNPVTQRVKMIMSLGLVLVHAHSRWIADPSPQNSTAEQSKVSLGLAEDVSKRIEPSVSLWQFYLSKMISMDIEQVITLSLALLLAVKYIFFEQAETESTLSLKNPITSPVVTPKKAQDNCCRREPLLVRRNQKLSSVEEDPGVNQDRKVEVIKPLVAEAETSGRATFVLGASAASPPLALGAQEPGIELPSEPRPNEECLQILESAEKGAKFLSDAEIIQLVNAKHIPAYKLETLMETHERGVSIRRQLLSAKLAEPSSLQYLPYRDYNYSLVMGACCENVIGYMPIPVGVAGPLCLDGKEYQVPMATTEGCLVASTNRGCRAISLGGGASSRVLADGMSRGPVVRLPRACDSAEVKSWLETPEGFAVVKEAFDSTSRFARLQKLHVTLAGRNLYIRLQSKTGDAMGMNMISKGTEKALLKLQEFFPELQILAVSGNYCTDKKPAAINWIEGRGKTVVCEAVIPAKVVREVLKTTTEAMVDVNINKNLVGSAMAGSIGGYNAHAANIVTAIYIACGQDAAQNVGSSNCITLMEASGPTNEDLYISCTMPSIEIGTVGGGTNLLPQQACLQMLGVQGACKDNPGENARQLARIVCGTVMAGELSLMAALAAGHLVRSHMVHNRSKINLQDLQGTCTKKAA
Description: HMG CoA reductase activity assay (rat liver microsomal preparation). It is filed as biochemical.

A further series has as its system male Rhesus monkey. Nature of the series: In vivo serum cholesterol test in male Rhesus monkeys. Conditions: 60 mg/kg/day.

Description for male Rhesus monkey: In vivo activity is tested as follows:
Initial serum total cholesterol, triglycerides, and lipoprotein cholesterol values are determined 3 times for each male Rhesus monkey used before treatment with a test compound begins. The test compound is administered in an initial dose of 60 mg/kg for 2 weeks and blood samples are taken to determine if rebound occurs. […] Statistical comparisons are made using the two tailed student's test.

Turning to `O=C(O)CC(O)(CCCCCCCCCCC1CCCCC1)CC(=O)O`, the pIC50 (usually the IC50 on a negative log10 scale, so that one unit is a factor of ten) at HMG CoA reductase (read-out: IC50 (HMG CoA reductase inhibition)) was 4.28.

Consider `O=C(O)CC(O)(CC(=O)O)CC1CCCC1`, for which the “HMG CoA reductase inhibition” value on HMG CoA reductase (at concentrations at least up to 1000 μm) was “inactive”.

`CC(C)(C)CCCCCCCCCCCC(O)(CC(=O)O)CC(=O)O` showed a reduced serum cholesterol with male Rhesus monkey (after 14 days of treatment, Rhesus monkey) of 30%.

`CCCCCCCCCCCCCCCC(O)(CC(=O)O)CC(=O)O`: in the series with male Rhesus monkey (Rhesus monkeys), the acute toxicity entry was “acute toxicity in 2 of 4 monkeys”.
